What was measured:
Type in all cases: in vivo, mouse
Settings in all cases: intraperitoneal; L-dopa 2 and 20 mg/kg with benserazide, tested 40 minutes after injection; apomorphine 10 mg/kg, tested 5 minutes after
[1] = system: hR1441G LRRK2 BAC mice (TG); experiment: Cylinder test (rearing), pharmacological rescue
Method: FIGS. 9A-9B illustrate robust locomotor deficit in hR1441G LRRK2 BAC mice was rescued by L-Dopa and apomorphine. Wild type littermates (WT) and hR1441G LRRK2 BAC mice (TG) were tested for 3 min in the cylinder test. Rearing was counted as an indication of motor activity. (9A) An age dependent decline in rearing was detected. At 3, 6 and 10 months of age, WT mice reared an average 50.4±SE2.13, 51.4±SE1.28, 50.2.4±SE2.13 times, while TG mice reared 49.4±SE2.13, […] and zero times respectively. At 6 and 10 months of age, TG mice had significant reductions (P<0.005, P<0.001 respectively). (9B) This robust deficit in TG mice was rescued by 20 mg/kg L-Dopa with […] Benseramide. In saline injection controls, WT and TG mice reared 50.4±SE2.48 and 0.8±SE0.37 in 3 minutes, whereas in L-dopa injection, WT and TG mice reared 47.2±SE1.65 and 28.4±SE1.43.
hR1441G LRRK2 mice and WT littermates were kept in a 12:12 hour light/dark cycle in a temperature and humidity controlled room. All behavioral tests were conducted in the dark phase after two hours of the light/dark switch. […] Vertical rearing and horizontal limb steps were counted. In open field test, mice were transferred into a 45 cm×45 cm box for 10 minutes, video taped and analyzed by Ethovision, 3.0 from Noldus. The locomotor activity was measured by total distance and the number of tiles that the mice traveled. […]

hR1441G LRRK2 mice [2] = experiment: Home cage activity test, pharmacological rescue
Method: (§1) hR1441G LRRK2 mice and WT littermates were kept in a 12:12 hour light/dark cycle in a temperature and humidity controlled room. All behavioral tests were conducted in the dark phase after two hours of the light/dark switch. In home cage activity test, hR1441G LRRK2 mice and wild type littermates were video taped in home cage for spontaneous ambulatory activity without any disturbance. In cylinder test, hR1441G LRRK2 mice were individually transferred into a 12 cm diameter cylinder and video taped with a reflective mirror for 5 minutes. Vertical rearing and horizontal limb steps were counted. In open field test, mice were transferred into a 45 cm×45 cm box for 10 minutes, video taped and analyzed by Ethovision, 3.0 from Noldus. The locomotor activity was measured by total distance and the number of tiles that the mice traveled.
(§2) To address whether the loss of movement in hR1441G LRRK2 mice originated from a defect in the dopaminergic system, a pharmacological approach was applied. hR1441G LRRK2 mice and wild type littermates were injected with saline control or methyl L-dopa hydrochloride (Sigma, St. Louis, USA) in 0.9% NaCl with benserazide 6.5 mg/kg (Sigma). Two dosages of methyl L-dopa hydrochloride (2 mg/kg and 20 mg/kg) were tested. 0.3 ml of intraperitoneal injections was administered to each animal. Behavioral testing were performed 40 minutes after the injections. […]

hR1441G LRRK2 mice [3] = experiment: Open field test, pharmacological rescue
Method: as §1, §2

CN1CCc2cccc3c2[C@H]1Cc1ccc(O)c(O)c1-3 [apomorphine]
significantly rescued: Rescue from motor deficits in the cylinder test [1] | Rescue from motor deficits in home cage activities (hR1441G LRRK2 mice [2]) | Rescue from motor deficits in the open field test (hR1441G LRRK2 mice [3])

From patent publication US20100186098A1, “TRANSGENIC ANIMAL MODELS OF PARKINSON'S DISEASE” (CORNELL UNIVERSITY, priority 2007, published 2010)
